Activity calls are given as the source filed them.
Assays:
[1] = biological target: Phosphoethanolamine/phosphocholine phosphatase (Homo sapiens, UniProt Q8TCT1); assay: SAR assay for compounds that inhibit PHOSPHO1. [Related pubchem assays (depositor defined):AID1545, AID1565, AID1574]
[2] = biological target: T1, Phosphomannomutase 2 (Homo sapiens, UniProt O15305); assay: Counter screen SAR assay for PMM2 inhibitors via a fluorescence intensity assay. [Related pubchem assays (depositor defined):AID1545, AID1574]
T1 sequence (O15305 whole entry): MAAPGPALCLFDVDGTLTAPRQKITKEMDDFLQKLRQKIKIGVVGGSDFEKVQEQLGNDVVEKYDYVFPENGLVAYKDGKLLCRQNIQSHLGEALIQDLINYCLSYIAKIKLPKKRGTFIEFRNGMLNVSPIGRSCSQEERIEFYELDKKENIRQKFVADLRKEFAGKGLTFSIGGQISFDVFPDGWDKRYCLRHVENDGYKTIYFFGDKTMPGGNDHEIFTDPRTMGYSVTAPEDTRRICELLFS

[3] = biological target: T2, Mannose-6-phosphate isomerase (Homo sapiens, UniProt P34949); assay: phosphomannose isomerase inhibition – biochemical, fluorescence intensity, confirmation (AID 1535)
T2 sequence (P34949 whole entry): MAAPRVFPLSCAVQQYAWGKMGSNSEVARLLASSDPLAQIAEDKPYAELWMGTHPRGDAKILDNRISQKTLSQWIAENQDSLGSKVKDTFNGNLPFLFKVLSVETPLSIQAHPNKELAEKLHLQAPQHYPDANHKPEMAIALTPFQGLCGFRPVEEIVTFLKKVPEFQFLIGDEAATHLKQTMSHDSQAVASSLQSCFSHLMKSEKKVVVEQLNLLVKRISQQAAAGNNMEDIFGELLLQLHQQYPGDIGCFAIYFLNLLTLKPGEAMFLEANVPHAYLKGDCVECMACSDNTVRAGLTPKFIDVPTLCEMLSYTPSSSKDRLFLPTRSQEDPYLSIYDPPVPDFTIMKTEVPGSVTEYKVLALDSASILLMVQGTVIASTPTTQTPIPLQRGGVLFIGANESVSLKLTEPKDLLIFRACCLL

[4] = biological target: Cytochrome P450 2C19 (Homo sapiens, UniProt P33261); assay: Cytochrome panel assay with activity outcomes. Panel member name: p450-cyp2c19 Compounds with AC50 equal or less than 10 uM are considered active; type: functional; conditions: read-out: AC50
Sequence of Cytochrome P450 2C19 (P33261 whole entry): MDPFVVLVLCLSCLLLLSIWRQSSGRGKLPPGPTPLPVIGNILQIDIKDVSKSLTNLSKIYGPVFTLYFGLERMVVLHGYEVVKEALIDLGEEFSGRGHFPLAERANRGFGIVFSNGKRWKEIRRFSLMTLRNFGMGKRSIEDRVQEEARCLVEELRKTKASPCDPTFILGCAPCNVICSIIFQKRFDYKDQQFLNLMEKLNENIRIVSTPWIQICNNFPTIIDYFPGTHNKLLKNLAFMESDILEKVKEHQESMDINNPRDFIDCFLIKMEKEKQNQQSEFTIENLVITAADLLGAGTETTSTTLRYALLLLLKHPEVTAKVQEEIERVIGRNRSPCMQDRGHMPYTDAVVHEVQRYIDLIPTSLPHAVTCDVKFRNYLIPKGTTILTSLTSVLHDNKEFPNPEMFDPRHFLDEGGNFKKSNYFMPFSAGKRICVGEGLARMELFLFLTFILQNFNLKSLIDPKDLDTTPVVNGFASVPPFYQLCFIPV

[5] = biological target: Cytochrome P450 2C9 (Homo sapiens, UniProt P11712)
Sequence of Cytochrome P450 2C9 (P11712 whole entry): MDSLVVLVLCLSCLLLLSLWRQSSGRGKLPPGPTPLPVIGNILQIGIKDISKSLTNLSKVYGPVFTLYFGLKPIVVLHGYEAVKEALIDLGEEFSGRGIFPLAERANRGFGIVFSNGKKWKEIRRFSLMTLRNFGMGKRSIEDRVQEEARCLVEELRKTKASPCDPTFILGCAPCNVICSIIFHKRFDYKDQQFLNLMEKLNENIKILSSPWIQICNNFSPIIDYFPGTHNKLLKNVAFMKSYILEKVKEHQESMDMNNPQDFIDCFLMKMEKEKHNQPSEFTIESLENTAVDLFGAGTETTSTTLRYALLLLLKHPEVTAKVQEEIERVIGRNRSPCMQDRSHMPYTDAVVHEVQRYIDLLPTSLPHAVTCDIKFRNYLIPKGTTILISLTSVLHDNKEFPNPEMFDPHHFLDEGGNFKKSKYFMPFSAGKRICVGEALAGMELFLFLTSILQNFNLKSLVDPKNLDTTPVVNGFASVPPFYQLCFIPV

[6] = biological target: Cytochrome P450 3A4 (Homo sapiens, UniProt P08684);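 note: CYP3A4 tested as one member of a cytochrome P450 panel screen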
Sequence of Cytochrome P450 3A4 (P08684 whole entry): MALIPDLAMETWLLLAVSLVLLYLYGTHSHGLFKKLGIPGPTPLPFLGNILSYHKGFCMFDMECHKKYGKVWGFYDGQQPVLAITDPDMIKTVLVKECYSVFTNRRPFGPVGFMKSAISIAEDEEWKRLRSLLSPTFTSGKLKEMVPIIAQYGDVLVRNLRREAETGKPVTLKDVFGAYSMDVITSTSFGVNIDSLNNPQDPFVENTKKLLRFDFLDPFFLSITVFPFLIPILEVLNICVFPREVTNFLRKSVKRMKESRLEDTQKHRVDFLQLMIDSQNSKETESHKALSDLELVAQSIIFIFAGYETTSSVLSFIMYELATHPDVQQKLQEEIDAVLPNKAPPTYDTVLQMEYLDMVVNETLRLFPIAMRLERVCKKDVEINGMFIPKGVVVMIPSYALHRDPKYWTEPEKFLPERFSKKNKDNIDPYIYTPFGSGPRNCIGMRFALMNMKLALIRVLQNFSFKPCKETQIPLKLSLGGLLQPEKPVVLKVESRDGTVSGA

[7] = biological target: Delta-type opioid receptor (Homo sapiens, UniProt P41143); assay: SAR Analysis of Antagonists of the DOR Receptor using an Image-Based Assay - Set 3. [Related pubchem assays (depositor defined):AID1777, AID1785]; type: functional;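 note: U2OS cells expressing DOR1 and beta-arrestin GFP stimulated with 100 nM SNC80; imaging of GFP-tagged beta-arrestin moving into spots after receptor activation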
Sequence of Delta-type opioid receptor (P41143 whole entry): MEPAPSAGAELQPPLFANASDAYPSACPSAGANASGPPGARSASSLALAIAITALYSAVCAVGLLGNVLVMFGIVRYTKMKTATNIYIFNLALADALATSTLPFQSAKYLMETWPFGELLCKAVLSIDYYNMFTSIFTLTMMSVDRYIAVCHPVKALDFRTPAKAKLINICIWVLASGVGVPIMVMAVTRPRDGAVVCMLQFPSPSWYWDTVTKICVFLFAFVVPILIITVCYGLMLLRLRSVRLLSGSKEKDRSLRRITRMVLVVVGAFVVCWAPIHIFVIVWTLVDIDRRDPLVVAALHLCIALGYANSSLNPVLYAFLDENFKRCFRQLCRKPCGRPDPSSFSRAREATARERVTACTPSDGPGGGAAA

[8] = biological target: T3, Kappa-type opioid receptor (Homo sapiens, UniProt P41145); assay: SAR analysis of Antagonists of the Kappa Opioid Receptor (KOR) using an Image-Based Assay - Set 4. [Related pubchem assays (depositor defined):AID1777, AID1785]; type: functional
T3 sequence (P41145 whole entry): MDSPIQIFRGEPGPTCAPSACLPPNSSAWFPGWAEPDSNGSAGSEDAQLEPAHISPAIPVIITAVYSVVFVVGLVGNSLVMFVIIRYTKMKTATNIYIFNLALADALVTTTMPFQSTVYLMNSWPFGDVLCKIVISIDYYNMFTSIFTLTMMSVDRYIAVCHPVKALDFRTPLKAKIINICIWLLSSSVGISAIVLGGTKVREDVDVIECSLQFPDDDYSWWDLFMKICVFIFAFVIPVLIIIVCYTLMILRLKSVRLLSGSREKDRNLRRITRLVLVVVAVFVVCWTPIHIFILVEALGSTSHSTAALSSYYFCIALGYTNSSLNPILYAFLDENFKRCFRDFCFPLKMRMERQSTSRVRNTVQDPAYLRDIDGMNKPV

[9] = biological target: T3, Kappa-type opioid receptor; assay: SAR analysis of small molecule antagonists of the kappa opioid receptor via a luminescent beta-arrestin assay - Set 3. [Related pubchem assays (depositor defined):AID1777, AID1778, AID1785, AID1786, AID1966, AID2133, AID2136, AID2285, AID2495]; type: functional
[10] = biological target: Mu-type opioid receptor (Homo sapiens, UniProt P35372); assay: SAR Analysis of Antagonists of the MOR Receptor using an Image-Based Assay - Set 3. [Related pubchem assays (depositor defined):AID1777, AID1785, AID1786, AID1966, AID2133, AID2136, AID2284, AID2285, AID2420]; type: functional
Sequence of Mu-type opioid receptor (P35372 whole entry): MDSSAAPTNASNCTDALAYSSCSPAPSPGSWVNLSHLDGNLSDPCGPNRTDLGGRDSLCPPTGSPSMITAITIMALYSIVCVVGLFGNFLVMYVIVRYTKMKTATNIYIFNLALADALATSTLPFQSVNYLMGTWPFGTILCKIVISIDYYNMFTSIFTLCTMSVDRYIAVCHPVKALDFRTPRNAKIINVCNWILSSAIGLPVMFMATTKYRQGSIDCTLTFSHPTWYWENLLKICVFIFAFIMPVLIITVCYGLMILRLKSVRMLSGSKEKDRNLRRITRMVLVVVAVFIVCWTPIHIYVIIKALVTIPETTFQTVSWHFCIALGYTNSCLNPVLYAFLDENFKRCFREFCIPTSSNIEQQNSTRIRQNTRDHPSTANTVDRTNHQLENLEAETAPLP

[11] = THP-1 cell cytotoxicity, dose response, cytotoxicity control for non-replicating M. tuberculosis project (AID 489025); type: functional
[12] = Vero E6 cell cytotoxicity, dose response, cytotoxicity control for non-replicating M. tuberculosis project, secondary assay (AID 492998); type: functional, VeroE6; conditions: Vero C1008
[13] = biological target: Dual specificity tyrosine-phosphorylation-regulated kinase 1A (Rattus norvegicus, UniProt Q63470); type: biochemical, Homo sapiens
[14] = biological target: Keap1/Nrf2 (Homo sapiens, UniProt Q14145); assay: disruptors of Keap1 binding to Nrf2 peptide – biochemical, fluorescence polarization, cherry-picked samples, dose response (AID 588683)
Sequence of Keap1/Nrf2 (Q16236 whole entry): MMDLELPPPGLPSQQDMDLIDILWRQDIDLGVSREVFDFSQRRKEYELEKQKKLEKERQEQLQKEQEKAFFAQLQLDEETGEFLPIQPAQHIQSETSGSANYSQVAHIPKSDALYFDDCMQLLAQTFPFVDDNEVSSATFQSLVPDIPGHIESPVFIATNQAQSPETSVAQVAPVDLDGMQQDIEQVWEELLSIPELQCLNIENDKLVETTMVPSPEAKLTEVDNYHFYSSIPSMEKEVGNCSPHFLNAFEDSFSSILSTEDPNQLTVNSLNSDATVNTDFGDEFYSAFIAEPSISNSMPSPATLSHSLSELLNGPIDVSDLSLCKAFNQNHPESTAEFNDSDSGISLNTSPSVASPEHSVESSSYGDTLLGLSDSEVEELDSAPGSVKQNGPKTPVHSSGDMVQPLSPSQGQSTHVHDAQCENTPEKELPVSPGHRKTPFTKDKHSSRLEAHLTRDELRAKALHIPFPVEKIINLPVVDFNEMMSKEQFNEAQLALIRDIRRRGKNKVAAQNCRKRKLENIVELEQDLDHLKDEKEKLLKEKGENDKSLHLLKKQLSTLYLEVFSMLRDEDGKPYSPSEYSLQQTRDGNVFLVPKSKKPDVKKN
Sequence of Keap1/Nrf2 (Q14145 whole entry): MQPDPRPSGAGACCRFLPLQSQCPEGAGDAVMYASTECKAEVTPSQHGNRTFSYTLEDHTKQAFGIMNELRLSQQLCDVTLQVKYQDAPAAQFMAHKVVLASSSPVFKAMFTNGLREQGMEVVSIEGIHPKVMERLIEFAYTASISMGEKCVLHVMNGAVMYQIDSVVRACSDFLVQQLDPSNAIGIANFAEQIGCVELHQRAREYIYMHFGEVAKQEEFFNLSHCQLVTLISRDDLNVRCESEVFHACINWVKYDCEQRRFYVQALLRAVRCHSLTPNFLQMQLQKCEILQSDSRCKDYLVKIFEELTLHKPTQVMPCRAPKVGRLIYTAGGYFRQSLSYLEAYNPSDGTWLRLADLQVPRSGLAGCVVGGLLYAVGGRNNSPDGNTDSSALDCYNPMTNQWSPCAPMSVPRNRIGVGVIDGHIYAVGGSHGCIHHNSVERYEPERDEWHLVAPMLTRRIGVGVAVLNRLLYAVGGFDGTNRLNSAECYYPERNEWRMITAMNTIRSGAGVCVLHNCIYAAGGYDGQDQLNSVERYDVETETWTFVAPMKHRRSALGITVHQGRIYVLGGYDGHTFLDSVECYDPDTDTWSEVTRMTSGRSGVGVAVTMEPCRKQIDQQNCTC

Sequence of Phosphoethanolamine/phosphocholine phosphatase (Q8TCT1 whole entry): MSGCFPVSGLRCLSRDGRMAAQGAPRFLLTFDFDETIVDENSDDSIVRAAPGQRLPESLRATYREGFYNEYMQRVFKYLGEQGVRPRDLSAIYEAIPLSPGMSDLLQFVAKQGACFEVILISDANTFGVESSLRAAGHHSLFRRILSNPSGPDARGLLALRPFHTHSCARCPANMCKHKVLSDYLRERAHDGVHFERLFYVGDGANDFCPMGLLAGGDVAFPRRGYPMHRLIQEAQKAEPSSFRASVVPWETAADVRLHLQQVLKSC

## O=c1c2ccccc2sn1-c1ccc2ccccc2c1
[1]
  IC50: 7.81 µM (inactive)
[2]
  IC50: 88.1 µM (active)

## O=c1c2ccccc2sn1-c1ccc(C(F)(F)F)cc1
[3]
  IC50: 41.2 µM (active)
[1]
  IC50: 34 µM (inactive)
[2]
  IC50: > 100 µM (inactive)

## CC(C)c1ccc(N(C(=O)C(F)(F)F)C(C(=O)NC2CCCCC2)c2ccncc2)cc1 (stereo not drawn)
[4]
  AC50: 1.12 µM (inconclusive)
[5]
  AC50: 2.24 µM (inconclusive)
[6]
  AC50: inconclusive

## CN(CCNC(=O)c1ccc(CNS(=O)(=O)c2ccc([N+](=O)[O-])cc2)cc1)Cc1ccccc1
[7]
  IC50: > 32 µM (inactive)
[8]
  IC50: 30.2 µM (inactive)
[9]
  IC50: 12.1 µM (inactive)
[10]
  IC50: 1.69 µM (active)

## O=c1c2ccccc2sn1-c1nc2ccccc2s1
[3]
  IC50: > 50 µM (inactive)
[2]
  IC50: > 100 µM (inactive)

## C/C(=N\NC(=O)CCc1ccccc1)C1C(=O)c2ccccc2C1=O
[11]
  CC50: 13.8 µM (active)
[12]
  CC50: 11.8 µM (active)

## O=C1c2ccccc2C(=O)c2c1ccc(O)c2O [ATHRAQUINONES A]
[13]
  AC50: 4.54 µM (active)
[14]
  AC50: > 52 µM (inactive)
